Structures can show the parent of a compound that is named as a salt.
Molecular target: T1, rat mGlu 1a receptor (Rattus norvegicus, UniProt P23385)
T1 construct: expressed in transfected cells; host or cells: EBNA cells (transient transfection)
Test: [Ca2+]i measurements (FLIPR, Fluo-3 AM) on mGlu 1a transfected EBNA cells; agonist or antagonist (against 10 μM glutamate)
Format: cell-based
Conditions: for Remarks (agonist / antagonist): table of substituents of the Examples, column Remarks
Experimental: cDNA encoding rat mGlu 1a receptor obtained from Prof. Nakanishi (Kyoto, Japan) was transiently tranfected into EBNA cells using a procedure described by Schlaeger et. al, New Dev. New Appl. Anim Cell Techn., Proc. ESACT Meet., 15th (1998), 105-112 and 117-120. [Ca^2+ ]i measurements were performed on mGlu 1a transfected EBNA cells after incubation of the cells with Fluo-3 AM (0.5 μM final concentration) for 1hour at 37° C. followed by 4 washes with assay buffer (DMEM supplemented with Hank's salt and 20 mM HEPES. [Ca^2+ ]i measurements were done using a fluorometric imaging plate reader (FLIPR, Molecular Devices Corporation, La Jolla, Calif. USA). When compounds were evaluated as antagonists they were tested against 10 μM glutamate as agonist.
The inhibition (antagonists) or activation (agonists) curves were fitted with a four parameter logistic equation giving EC50, IC50, and Hill coefficient using the iterative non linear curve fitting software Origin (Microcal Software Inc., Northampton, Mass., USA).

T1 sequence (P23385 19-1199): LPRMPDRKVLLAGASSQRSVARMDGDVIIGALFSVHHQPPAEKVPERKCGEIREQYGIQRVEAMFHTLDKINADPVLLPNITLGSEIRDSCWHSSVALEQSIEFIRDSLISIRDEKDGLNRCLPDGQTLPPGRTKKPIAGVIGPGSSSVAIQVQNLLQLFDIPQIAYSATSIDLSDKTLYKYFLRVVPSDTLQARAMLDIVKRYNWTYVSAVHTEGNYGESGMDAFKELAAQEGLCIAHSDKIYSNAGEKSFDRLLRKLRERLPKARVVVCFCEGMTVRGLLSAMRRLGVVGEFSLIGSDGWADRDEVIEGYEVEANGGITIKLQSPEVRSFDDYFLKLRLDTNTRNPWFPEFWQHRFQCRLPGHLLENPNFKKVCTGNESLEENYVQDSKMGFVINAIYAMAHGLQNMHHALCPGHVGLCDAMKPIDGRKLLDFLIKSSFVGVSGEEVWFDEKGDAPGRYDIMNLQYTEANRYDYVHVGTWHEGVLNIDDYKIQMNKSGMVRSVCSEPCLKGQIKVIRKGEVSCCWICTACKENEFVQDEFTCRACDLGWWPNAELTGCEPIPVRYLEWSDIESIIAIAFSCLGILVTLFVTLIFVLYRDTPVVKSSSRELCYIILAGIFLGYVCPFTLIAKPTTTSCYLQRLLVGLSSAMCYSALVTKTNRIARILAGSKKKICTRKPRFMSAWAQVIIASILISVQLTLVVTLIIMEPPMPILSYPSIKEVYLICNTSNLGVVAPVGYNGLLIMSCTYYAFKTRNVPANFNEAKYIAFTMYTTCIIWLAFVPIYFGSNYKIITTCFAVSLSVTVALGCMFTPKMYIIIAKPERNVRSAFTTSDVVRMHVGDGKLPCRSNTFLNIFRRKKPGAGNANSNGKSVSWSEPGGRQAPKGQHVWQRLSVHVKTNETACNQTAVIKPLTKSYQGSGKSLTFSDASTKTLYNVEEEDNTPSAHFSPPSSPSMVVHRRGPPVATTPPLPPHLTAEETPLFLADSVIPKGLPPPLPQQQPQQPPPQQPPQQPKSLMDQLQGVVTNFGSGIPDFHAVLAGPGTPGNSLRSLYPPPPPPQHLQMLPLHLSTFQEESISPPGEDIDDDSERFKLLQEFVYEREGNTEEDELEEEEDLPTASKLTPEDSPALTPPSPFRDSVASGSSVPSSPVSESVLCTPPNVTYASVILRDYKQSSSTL

| Compound | Remarks (agonist / antagonist) | agonistic / antagonistic activity to the mGlu receptor | agonist/antagonist (activity-data table) | EC50 (agonist, activation of mGlu 1a in EBNA cells, read-out: IC50 (compounds marked agonist)) [nM] |
| --- | --- | --- | --- | --- |
| CCc1ccc(C2CCCN2S(=O)(=O)c2ccc(C)cc2)cc1 (racemic) [Example 78, (RS)-2-(4-Ethyl-phenyl)-1-(toluene-4-sulfonyl)-pyrrolidine] | Agonist | agonistic activty |  |  |
| CCc1ccc(C2CCCN2S(=O)(=O)c2ccc(Cl)cc2)cc1 (racemic) [Example 79, (RS)-2-(4-Ethyl-phenyl)-1-(4-chloro-benzenesulfonyl)-pyrrolidine] | Antagonist |  |  |  |
| Cc1ccc(S(=O)(=O)N2CCCC2c2cccnc2)cc1 (racemic) [Example 83, (RS)-3-[1-(Toluene-4-sulfonyl)-pyrrolidin-2-yl]-pyridine] | Agonist | agonistic activty |  |  |
| COCc1ccc(S(=O)(=O)N2CCCC2c2ccc(F)cc2)cc1 (racemic) [Example 85, (RS)-2-(4-Fluoro-phenyl)-1-(4-methoxymethyl-benzenesulfonyl)-pyrrolidine] | Agonist | agonistic activty |  |  |
| O=C(O)/C=C/C(=O)O.O=S(=O)(c1ccc(CN2CCOCC2)cc1)N1CCCC1c1ccc(F)cc1 (racemic) [Example 86, (RS)-4-{4-[2-(4-Fluoro-phenyl)-pyrrolidine-1-sulfonyl]-benzyl}-morpholine fumarate (1:1)] | Antagonist |  |  |  |
| Cc1ccc(S(=O)(=O)N2CCC(C)C2c2ccc(F)cc2)cc1 (racemic) [Example 88, Mixture of (2RS,3RS )- and (2RS,3SR)-2-(4-fluoro-phenyl)-3-methyl-1-(toluene-1-sufonyl)-pyrrolidine] | agonist | agonistic activty | agonist | 620 |
| CC1CCN(S(=O)(=O)c2ccc(Cl)cc2)C1c1ccc(F)cc1 (racemic) [Example 89, Mixture of (2RS,3RS)- and (2RS,3 SR)-1-(4-chloro-benzenesulfonyl)-2-(4-fluoro-phenyl)-3-methyl-pyrrolidine] | agonist | agonistic activty |  |  |
| Cc1ccc(S(=O)(=O)N2CC[C@@H](CO)[C@@H]2c2ccc(F)cc2)cc1 (racemic) [Example 91, (2RS,3 RS)-[2-(4-Fluoro-phenyl)-1-(toluene-4-sulfonyl)-pyrrolidin-3-yl]-methanol] | agonist | agonistic activty |  |  |

The next lines start with the values.

| Remarks (agonist / antagonist) | agonistic / antagonistic activity to the mGlu receptor | agonist/antagonist (activity-data table) | EC50 (agonist, activation of mGlu 1a in EBNA cells, read-out: IC50 (compounds marked agonist)) [nM] | Compound |
| --- | --- | --- | --- | --- |
| Antagonist |  |  |  | O=S(=O)(c1ccccc1)N1CCCC1c1ccc(C(F)(F)F)cc1 (racemic) [Example 75, (RS)-1-Benzenesulfonyl-2-(4-trifluoromethyl-phenyl)-pyrrolidine] |
| Antagonist |  |  |  | CCc1ccc(C2CCCN2S(=O)(=O)c2ccc(F)cc2)cc1 (racemic) [Example 80, (RS)-2-(4-Ethyl-phenyl)-1-(4-fluoro-benzenesulfonyl)-pyrrolidine] |
| Agonist | agonistic activty |  |  | O=S(=O)(c1ccc(CO)cc1)N1CCCC1c1ccc(F)cc1 (racemic) [Example 84, (RS)-2-(4-Fluoro-phenyl)-1-(4-hydroxymethyl-benzenesulfonyl)-pyrrolidine] |
| Antagonist |  |  |  | NCc1ccc(S(=O)(=O)N2CCCC2c2ccc(F)cc2)cc1 (racemic) [Example 87, (RS)-4-[2-(4-Fluoro-phenyl)-pyrrolidine-1-sulfonyl]-benzylamine fumarate (1:0.5)] |
| Agonist |  |  |  | O=S(=O)(c1ccc(Cl)cc1)N1CCC[C@@H]1c1ccc(F)cc1 [Example 76, (R)-1-(4-Chloro-benzenesulfonyl)-2-(4-fluoro-phenyl)-pyrrolidine] |
| Agonist | agonistic activty |  |  | O=S(=O)(c1ccc(Cl)cc1)N1CCC[C@H]1c1ccc(F)cc1 [Example 77, (S)-1-(4-Chloro-benzenesulfonyl)-2-(4-fluoro-phenyl)-pyrrolidine] |
| Agonist | agonistic activty |  |  | Cc1ccc(S(=O)(=O)N2CCC[C@@H]2c2ccc(F)cc2)cc1 [Example 81, (R)-2-(4-Fluoro-phenyl)-1-(toluene-4-sulfonyl)-pyrrolidine] |
| Agonist | agonistic activty |  |  | Cc1ccc(S(=O)(=O)N2CCC[C@H]2c2ccc(F)cc2)cc1 [Example 82, (S)-2-(4-Fluoro-phenyl)-1-(toluene-4-sulfonyl)-pyrrolidine] |

Reference: patent US6284785A, “1-arenesulfonyl-2-aryl-pyrrolidine and pyridine derivatives” (Hoffmann- La Roche Inc., priority 1999, dated 2001)
